# Numbers after ± are expanded uncertainties.
# Experiments:
# [1] = Liquid; for mass density / speed of sound: 298.15 K, 101.33 kPa
# [2] = refractive index (Na D-line) (dimensionless); conditions: 298.15 K; 101.33 kPa; Liquid; Standard Abbe refractometry
# [3] = xn = mol fraction of the nth substance listed; conditions: 298.15 K, 101 kPa, Liquid
# [4] = Ebulliometric method (Recirculating still)
structure (smiles),measurement,setting,value
CCC(C)CO (stereo not given) [2-methyl-1-butanol],mass density,[1],814.7 ± 0.6 kg/m3
same,speed of sound,[1],1251.8 ± 1.8 m/s
same,Normal boiling temperature,[1]; [4],128.78 ± 0.2 °C
same,refractive index,[2],1.40866 ± 0.00072
CCC(C)CO (stereo not given) [2-methyl-1-butanol] + CCOC(C)=O,mass density,[3]; x2 = 0.05,817.8 ± 0.6 kg/m3
same,mass density,[3]; x2 = 0.099,820.9 ± 0.6 kg/m3
same,mass density,[3]; x2 = 0.15,824.2 ± 0.5 kg/m3
same,mass density,[3]; x2 = 0.2,827.5 ± 0.5 kg/m3
same,mass density,[3]; x2 = 0.25,830.9 ± 0.5 kg/m3
same,mass density,[3]; x2 = 0.3,834.4 ± 0.5 kg/m3
same,mass density,[3]; x2 = 0.349,838 ± 0.5 kg/m3
same,mass density,[3]; x2 = 0.399,841.7 ± 0.5 kg/m3
same,mass density,[3]; x2 = 0.451,845.6 ± 0.5 kg/m3
same,mass density,[3]; x2 = 0.499,849.4 ± 0.5 kg/m3
same,mass density,[3]; x2 = 0.549,853.3 ± 0.5 kg/m3
same,mass density,[3]; x2 = 0.598,857.3 ± 0.5 kg/m3
same,mass density,[3]; x2 = 0.65,861.6 ± 0.5 kg/m3
same,mass density,[3]; x2 = 0.699,865.8 ± 0.5 kg/m3
same,mass density,[3]; x2 = 0.75,870.2 ± 0.5 kg/m3
same,mass density,[3]; x2 = 0.793,874.2 ± 0.5 kg/m3
same,mass density,[3]; x2 = 0.846,879.1 ± 0.5 kg/m3
same,mass density,[3]; x2 = 0.9,884.2 ± 0.5 kg/m3
same,mass density,[3]; x2 = 0.95,889.1 ± 0.4 kg/m3
CC(C)CO [2-methyl-1-propanol],mass density,[1],797.8 ± 0.6 kg/m3
same,speed of sound,[1],1186.4 ± 1.7 m/s
same,Normal boiling temperature,[1]; [4],107.78 ± 0.2 °C
same,refractive index,[2],1.39366 ± 0.00073
CC(C)CO [2-methyl-1-propanol] + CCOC(C)=O,mass density,[3]; x2 = 0.049,802.3 ± 0.6 kg/m3
same,mass density,[3]; x2 = 0.101,806.8 ± 0.6 kg/m3
same,mass density,[3]; x2 = 0.153,811.5 ± 0.6 kg/m3
same,mass density,[3]; x2 = 0.202,816 ± 0.6 kg/m3
same,mass density,[3]; x2 = 0.251,820.6 ± 0.6 kg/m3
same,mass density,[3]; x2 = 0.3,825.2 ± 0.6 kg/m3
same,mass density,[3]; x2 = 0.35,829.9 ± 0.6 kg/m3
same,mass density,[3]; x2 = 0.401,834.7 ± 0.6 kg/m3
same,mass density,[3]; x2 = 0.451,839.5 ± 0.5 kg/m3
same,mass density,[3]; x2 = 0.501,844.3 ± 0.5 kg/m3
same,mass density,[3]; x2 = 0.55,849 ± 0.5 kg/m3
same,mass density,[3]; x2 = 0.6,853.8 ± 0.5 kg/m3
same,mass density,[3]; x2 = 0.65,858.8 ± 0.5 kg/m3
same,mass density,[3]; x2 = 0.7,863.7 ± 0.5 kg/m3
same,mass density,[3]; x2 = 0.751,868.9 ± 0.5 kg/m3
same,mass density,[3]; x2 = 0.801,873.8 ± 0.5 kg/m3
same,mass density,[3]; x2 = 0.85,878.7 ± 0.5 kg/m3
same,mass density,[3]; x2 = 0.9,883.8 ± 0.5 kg/m3
same,mass density,[3]; x2 = 0.95,888.9 ± 0.5 kg/m3
CCOC(C)=O [ethyl acetate],mass density,[1],894.3 ± 0.2 kg/m3
same,speed of sound,[1],1139.6 ± 1.6 m/s
same,Normal boiling temperature,[1],77.00 ± 0.2 °C
same,refractive index,[2],1.36978 ± 0.00072

# Source: the NIST ThermoML archive (doi:10.1021/je050420+)
